Tests used:
[1] = system: horse oocytes; experiment: Data in horses: protocol of Group 4 of Example 9 repeated with horse oocytes; type: in vivo
Description: The protocol of Group 4 of Example 9 was repeated with […] horse oocytes. Of these, pregnancy was detected at two weeks in 6 mares, […]. Of these 6, 3 pregnancies were detected at 30 days and 1 was detected at 45 days.
(§1) Holding/Activation/Culture Medium for Group 4 in Example 9 and in horses in Example 10 • HECM (Ball et al., Amer. J. Vet. Res., 54(7):1139-44 (1993) • Ham's F-12+Dulbecco's […] (DMEM)—(50:50, v:v) • 0.71 mM CaCl2 (1×) • 29 mM NaHCO3 • 5 micrograms/ml insulin • 5 micrograms/ml transferrin • 5 ng/ml Na-selenite • 10 ng/ml EGF • 50 IU penicillin • 50 micrograms streptomycin

[2] = system: equine oocytes; experiment: Nuclear transfer with activation of oocytes in calcium chloride/ionomycin activation medium, embryo transfer and pregnancy detection by transrectal ultrasonography (cloned mule embryos); type: in vivo, mule (donor cells); recipient mare Equus caballus
Description: A primary culture of fibroblast cells was established from a 45-day mule fetus recovered from a domestic horse mare using transcervical uterine lavage. Culture medium was Glasgow MEM BHK-21 supplemented with 10% FBS, 100 units/ml penicillin, and 100 μg/ml streptomycin. Incubation was performed at 38.5° C. in a humidified atmosphere of 5% CO2 in air. Prior to the nuclear transfer procedure, the fibroblast cells were serum “starved” for 5 to 10 days by placing them into medium with 0.5% FBS.
Mares that were used as oocyte donors and as cloned-embryo recipients were of mixed breeding, 3 to 12 years old, and weighed 300 to 500 kg. The reproductive tracts of the mares were monitored by transrectal palpation and ultrasonography to assess follicular activity, ovulation, and the presence and degree of endometrial edema.
Oocytes were collected by one of three methods.
1. Recent (≦12 hours) post-ovulatory oocytes (n=12) were collected by surgically excising the oviduct ipsilateral to ovulation and then flushing the oviduct in a retrograde manner with modified DPBS.
2. Pre-ovulatory oocytes (n=3) were collected by surgically excising ovaries containing a pre-ovulatory follicle (≧35 mm) approximately 30 hours after administration of 2500 IU hCG and then manually aspirating the follicle.
3. Pre-ovulatory oocytes (n=180) were collected using transvaginal aspiration (TVA) of pre-ovulatory follicles approximately 24 hours after administration of 2500 IU hCG.
Oocytes collected post-ovulation were incubated for up to 6 hours in maturation medium (M-199) containing 10% FBS, 0.05 units/ml pFSH, 0.05 units/ml pLH, 10 units/ml penicillin and 10 μg/ml streptomycin. Oocytes collected pre-ovulation were incubated in maturation medium for approximately 12 hours.
Cumulus-free metaphase II oocytes and starved donor cells were placed in a manipulation drop of TL HEPES containing 7.5 μg of cytochalasin B. The first polar body and metaphase plate of the oocytes were drawn into a 25-28 ID enucleation pipette. The same pipette was used to aspirate a disaggregated donor cell nucleus and place it in the perivitelline space of an oocyte to obtain an NT couple. Fusion of NT couples was induced by a single 15 μsec, 2.2 kv/cm DC pulse in a 3.5 mm fusion chamber. Fusion medium was […] D-mannitol containing 0.5 mM HEPES and 0.05% fatty acid-free BSA. Fused NT couples were activated by placing them in an activation medium containing calcium chloride and ionomycin for 8 minutes. Three different concentrations of calcium chloride were used in the activation medium: 2 mM (n=133 oocytes), 6 mM (n=40 oocytes), and 20 mM (n=22 oocytes).
Immediately following nuclear transfer and activation, the oocytes, hereafter referred to as embryos, were surgically transferred to the oviduct of a recipient mare (Equus caballus) that had ovulated within 24 hours prior to the transfer. One to nine embryos were transferred to each mare. Pregnancy examinations on the recipient mare were performed using transrectal ultrasonography beginning on Day 12 post-transfer.

[3] = system: Oocytes from mules; experiment: Additional data in mules: calcium concentration in activation medium and peripheral media, pregnancies after nuclear transfer; type: in vivo, mule
Text: The procedures of the above examples were repeated in order to compare results obtained with different concentrations of calcium in the activation medium and in peripheral media, that is media other than the activation medium. Oocytes from mules were placed into one of four groups as follows: In Groups 1 to 3, media was as described above in Examples 1 to 5, except for calcium concentration, which is as described below. In Group 4, media was HECM media.
Tissue Culture Medium (TCM)—199 with Earl's salts • 1.4 mM CaCl2 (1×) • 10% Fetal Bovine Serum (FBS) • 0.05 units FSH • 0.05 units LH • 100 units penicillin • 100 micrograms streptomycin Manipulation Medium:
PB1 (Whittingham, D G, J. Reprod. Fert., 37(1):159-162 (1974) • Dulbecco's phosphate buffered saline • 1.4 mM CaCl2 (1×) • 0.5 mM MgCl2 • 0.33 mM Na-pyruvate • 5.56 mM Glucose • 3 mg/ml Bovine Serum Albumin (BSA)—fraction 5 • 100 units penicillin • 10 micrograms streptomycin Transfer Medium
PB1 (as in Manipulation Medium) except 0.7 mM CaCl2 (1×)
as §1

[4] = Group 4 protocol (6x Ca activation, 3x peripheral media), 59 horse oocytes
[5] = Group 4 protocol, of 6 two-week pregnancies
[6] = 2 mM calcium in activation medium
[7] = 6 mM calcium in activation medium
[8] = 20 mM calcium in activation medium
[9] = Group 4 (6x Ca activation, 3x peripheral media)

In the case of [Ca+2].[Cl-].[Cl-] [calcium chloride], the “Pregnancy detected at two weeks” value [1, 4] is reported as 4.4%, the “Pregnancy detected at two weeks, number of mares” value [1, 4] is reported as 6 and the “Pregnancies detected at 30 days” value [1, 5] is reported as 3. For the same molecule, the “Pregnancies detected at 45 days” value [1, 5] was 1, the “Pregnancy Rate” value [2, 6] was “(1.5%)” and the “Pregnancy Rate (pregnancies/oocytes)” value [2, 6] was 2/133. For the same molecule, the “Pregnancy Rate” value [2, 7] was “(7.5%)”, the “Pregnancy Rate (pregnancies/oocytes)” value [2, 7] was 3/40 and the “Ultrasonography of cloned mule conceptus” value ([2]; 6 mM calcium in activation medium, Day 32 of gestation) was “an embryonic heart was evident”. The “Pregnancy Rate” value [2, 8] was “(9.1%)”, the “Pregnancy Rate (pregnancies/oocytes)” value [2, 8] was 2/22 and the “Pregnancies, higher versus lower calcium” value ([2]; 6 and 20 mM combined compared to 2 mM in activation medium, P<0.05) was “more pregnancies”. The “Two-week pregnancies detectable at 30 days” value ([3]; Group 1 (1x Ca all media), of 2 two-week pregnancies) was “neither”, the “PREGNANCIES (2 weeks)” value ([3]; Group 1: 1x Ca (about 2 mM) all media) was “(1.7%)” and the “PREGNANCIES (2 weeks), number” value ([3]; Group 1: 1x Ca (about 2 mM) all media, 115 oocytes) was 2. The “Two-week pregnancies detectable at 30 days” value ([3]; Group 2 (3x Ca activation medium), of 3 two-week pregnancies) was 2, the “PREGNANCIES (2 weeks)” value ([3]; Group 2: 3x Ca (about 6 mM) in activation media, 1x Ca all other media) was “(7.5%)” and the “PREGNANCIES (2 weeks), number” value ([3]; Group 2: 3x Ca (about 6 mM) in activation media, 1x Ca all other media, 40 oocytes) was 3. The “PREGNANCIES (2 weeks)” value ([3]; Group 3: 10x Ca (about 20 mM) in activation media, 1x Ca all other media) was “(9.09%)”, the “PREGNANCIES (2 weeks), number” value ([3]; Group 3: 10x Ca (about 20 mM) in activation media, 1x Ca all other media, 22 oocytes) was 2 and the “Pregnancies detectable at 45 days” value [3, 9] was “Five”. For the same molecule, the “Pregnancies detectable at 120 days” value [3, 9] was 3, the “Two-week pregnancies detectable at 30 days” value ([3]; Group 4 (6x Ca activation, 3x peripheral media), of 12 two-week pregnancies) was 9 and the “PREGNANCIES (2 weeks)” value ([3]; Group 4: 6x Ca (about 12 mM) in activation media, 3x Ca all other media, HECM media) was “(14.4%)”. For the same molecule, the “PREGNANCIES (2 weeks), number” value ([3]; Group 4: 6x Ca (about 12 mM) in activation media, 3x Ca all other media, HECM media, 132 oocytes) was 19.
